Laboratory results as given in paper PMC4841451 (Journal of medicinal chemistry, 2016).

Key:
[1] = tested on: pAkt (PI3K activity) in A549 and D54 cells; assay: Western blot of pAKT in cultured tumor cells; format: cell-based, human; details: 1 h treatment; for PI3K activity, level of pAKT (Western blot): cultured A549 cells; for PI3K inhibition in cells (Western blot): both cell lines (A549, D54)
A549 lung tumor cells = assay: Cell viability, AlamarBlue assay, A549; format: cell-based, human; details: 48 h
[2] = tested on: pErk1/2 (MEK1 activity) in A549 and D54 cells; assay: Western blot of pERK1/2 in cultured tumor cells; format: cell-based, human; details: both cell lines (A549, D54), 1 h treatment
[3] = tested on: tumor Akt phosphorylation; assay: In vivo PI3K inhibition in tumor bearing mice
D54 glioma cells = assay: Cell viability, AlamarBlue assay, D54; format: cell-based; details: 48 h
[4] = tested on: tumor ERK1/2 phosphorylation; assay: In vivo MEK1 inhibition in tumor bearing mice
[5] = preliminary experiment, A549 and D54 tumors, data not shown
[6] = 375 mg/kg oral gavage, 2 h prior to sacrifice, D54 and A549 flank tumors

Compound	PI3K activity, level of pAKT (Western blot) [1]	cell viability (A549 lung tumor cells)	inhibition of MEK activity in cells (Western blot) [2]	PI3K inhibition in cells (Western blot) [1]	pAkt levels in mouse tumors [3, 5]	cell viability (D54 glioma cells)	ERK1/2 levels in mouse tumors [4, 5]	phosphorylation of Akt in excised tumor tissue [3, 6]	phosphorylation of ERK1/2 in excised tumor tissue [4, 6]
O=C(CNCCONC(=O)c1ccc(F)c(F)c1Nc1ccc(I)cc1F)NCCCCCC(=O)N1CCN(c2nc(N3CCOCC3)nc(-n3c(C(F)F)nc4ccccc43)n2)CC1 [Compound 7, N-(2-((2-((6-(4-(4-(2-(Difluoromethyl)-1H-benzo[d]imidazol-1-yl)-6-morpholino-1,3,5-triazin-2-yl)piperazin-1-yl)-6-oxohexyl)amino)-2-oxoethyl)amino)ethoxy)-3,4-difluoro-2-((2-fluoro-4-iodophenyl)amino)benzamide]	high potency								
O=C(NOCCNCCCCCC(=O)N1CCN(c2nc(N3CCOCC3)nc(-n3c(C(F)F)nc4ccccc43)n2)CC1)c1ccc(F)c(F)c1Nc1ccc(I)cc1F [Compound 9, N-(2-((6-(4-(4-(2-(Difluoromethyl)-1H-benzo[d]imidazol-1-yl)-6-morpholino-1,3,5-triazin-2-yl)piperazin-1-yl)-6-oxohexyl)amino)ethoxy)-3,4-difluoro-2-((2-fluoro-4-iodophenyl)amino)benzamide]	high potency	as effective as the combination of ZSTK474 and PD0325901	most pronounced	most pronounced	modulation	as effective as the combination of ZSTK474 and PD0325901	modulation		
O=C(NOCCOCCOCCOCCN1CCN(c2nc(N3CCOCC3)nc(-n3c(C(F)F)nc4ccccc43)n2)CC1)c1ccc(F)c(F)c1Nc1ccc(I)cc1F [Compound 14, N-(2-(2-(2-(2-(4-(4-(2-(Difluoromethyl)-1H-benzo[d]imidazol-1-yl)-6-morpholino-1,3,5-triazin-2-yl)piperazin-1-yl)ethoxy)-ethoxy)ethoxy)ethoxy)-3,4-difluoro-2-((2-fluoro-4-iodophenyl)amino)benzamide]	high potency	as effective as the combination of ZSTK474 and PD0325901	most pronounced	most pronounced		as effective as the combination of ZSTK474 and PD0325901		inhibited	inhibited
